Results reported in paper PMC10700596 (Nature Communications, 2023).
“And” between values parts separate entries of the source, which are not always exact repeats. Equal values may be shown once.

Key:
Format in all cases: cell-based
[1] = biological target: 320 GPCRs (Homo sapiens, UniProt P35462)
[2] = biological target: 320 GPCRs (Homo sapiens, UniProt O15303)
[3] = biological target: 320 GPCRs (Homo sapiens, UniProt P47775)
[4] = biological target: 320 GPCRs (Homo sapiens, UniProt Q16602)
[5] = biological target: 320 GPCRs (Homo sapiens, UniProt Q16581)
[6] = biological target: 320 GPCRs (Homo sapiens, UniProt Q8NFJ6)
[7] = biological target: 320 GPCRs (Homo sapiens, UniProt P21453)
320 GPCRs (Homo sapiens, UniProt P21453), sequence (P21453 whole entry): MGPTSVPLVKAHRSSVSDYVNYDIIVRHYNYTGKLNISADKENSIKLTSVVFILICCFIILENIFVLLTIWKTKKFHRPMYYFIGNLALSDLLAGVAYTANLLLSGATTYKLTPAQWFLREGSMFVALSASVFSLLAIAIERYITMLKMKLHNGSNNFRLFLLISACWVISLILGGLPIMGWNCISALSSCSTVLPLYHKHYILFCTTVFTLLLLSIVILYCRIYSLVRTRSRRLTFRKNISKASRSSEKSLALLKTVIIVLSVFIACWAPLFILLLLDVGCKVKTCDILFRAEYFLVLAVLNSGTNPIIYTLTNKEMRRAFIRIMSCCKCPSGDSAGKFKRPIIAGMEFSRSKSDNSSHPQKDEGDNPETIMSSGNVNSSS

[8] = biological target: 320 GPCRs (Homo sapiens, UniProt O00421)
[9] = biological target: 320 GPCRs (Homo sapiens, UniProt O00254)
[10] = biological target: 320 GPCRs (Homo sapiens, UniProt P25090)
[11] = biological target: 320 GPCRs (Homo sapiens, UniProt P25021)
[12] = biological target: 320 GPCRs (Homo sapiens, UniProt Q9Y653)
320 GPCRs (Homo sapiens, UniProt Q9Y653), sequence (Q9Y653 26-693): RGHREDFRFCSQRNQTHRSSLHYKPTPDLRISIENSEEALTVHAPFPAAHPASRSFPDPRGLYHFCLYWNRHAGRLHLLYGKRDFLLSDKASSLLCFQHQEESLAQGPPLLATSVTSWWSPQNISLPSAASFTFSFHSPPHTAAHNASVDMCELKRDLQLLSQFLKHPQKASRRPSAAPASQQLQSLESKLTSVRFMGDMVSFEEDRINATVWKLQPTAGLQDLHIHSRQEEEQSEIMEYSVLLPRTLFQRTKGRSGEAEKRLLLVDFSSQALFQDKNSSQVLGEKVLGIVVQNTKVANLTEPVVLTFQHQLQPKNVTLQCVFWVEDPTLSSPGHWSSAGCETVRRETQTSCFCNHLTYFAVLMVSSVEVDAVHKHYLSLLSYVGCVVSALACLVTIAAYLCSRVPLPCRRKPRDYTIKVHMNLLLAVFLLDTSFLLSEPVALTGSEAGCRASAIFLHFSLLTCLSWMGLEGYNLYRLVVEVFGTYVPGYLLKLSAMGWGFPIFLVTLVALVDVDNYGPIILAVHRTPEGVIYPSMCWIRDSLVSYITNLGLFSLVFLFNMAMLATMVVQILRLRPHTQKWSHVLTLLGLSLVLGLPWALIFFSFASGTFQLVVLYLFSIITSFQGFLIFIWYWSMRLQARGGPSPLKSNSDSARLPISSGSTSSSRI

[13] = biological target: 320 GPCRs (Homo sapiens, UniProt P30411)
[14] = biological target: 320 GPCRs (Homo sapiens, UniProt O95136)
[15] = biological target: 320 GPCRs (Homo sapiens, UniProt Q13258)
[16] = biological target: 320 GPCRs (Homo sapiens, UniProt P24530)
[17] = biological target: 320 GPCRs (Homo sapiens, UniProt Q9BZJ7)
[18] = biological target: 320 GPCRs (Homo sapiens, UniProt Q8IZF4)
[19] = biological target: 320 GPCRs (Homo sapiens, UniProt P43116)
[20] = biological target: 320 GPCRs (Homo sapiens, UniProt P32248)
[21] = biological target: 320 GPCRs (Homo sapiens, UniProt P51685)
[22] = biological target: 320 GPCRs (Homo sapiens, UniProt Q96RI0)
[23] = biological target: 320 GPCRs (Homo sapiens, UniProt Q8TDV2)
[24] = biological target: 320 GPCRs (Homo sapiens, UniProt Q9NS66)
[25] = biological target: 320 GPCRs (Homo sapiens, UniProt Q8TDS4)
320 GPCRs (Homo sapiens, UniProt Q8TDS4), sequence (Q8TDS4 whole entry): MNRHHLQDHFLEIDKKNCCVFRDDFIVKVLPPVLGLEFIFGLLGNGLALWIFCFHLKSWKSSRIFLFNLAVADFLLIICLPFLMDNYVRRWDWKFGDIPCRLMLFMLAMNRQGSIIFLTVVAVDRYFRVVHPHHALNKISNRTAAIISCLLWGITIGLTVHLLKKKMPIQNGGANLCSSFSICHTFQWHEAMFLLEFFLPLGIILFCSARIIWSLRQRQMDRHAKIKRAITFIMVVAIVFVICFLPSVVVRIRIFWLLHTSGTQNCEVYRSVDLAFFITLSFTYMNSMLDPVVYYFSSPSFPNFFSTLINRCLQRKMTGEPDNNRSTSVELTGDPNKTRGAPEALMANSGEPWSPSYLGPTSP

[26] = biological target: 320 GPCRs (Homo sapiens, UniProt Q969N4)
[27] = biological target: 320 GPCRs (Homo sapiens, UniProt O00222)
320 GPCRs (Homo sapiens, UniProt O00222), sequence (O00222 34-908): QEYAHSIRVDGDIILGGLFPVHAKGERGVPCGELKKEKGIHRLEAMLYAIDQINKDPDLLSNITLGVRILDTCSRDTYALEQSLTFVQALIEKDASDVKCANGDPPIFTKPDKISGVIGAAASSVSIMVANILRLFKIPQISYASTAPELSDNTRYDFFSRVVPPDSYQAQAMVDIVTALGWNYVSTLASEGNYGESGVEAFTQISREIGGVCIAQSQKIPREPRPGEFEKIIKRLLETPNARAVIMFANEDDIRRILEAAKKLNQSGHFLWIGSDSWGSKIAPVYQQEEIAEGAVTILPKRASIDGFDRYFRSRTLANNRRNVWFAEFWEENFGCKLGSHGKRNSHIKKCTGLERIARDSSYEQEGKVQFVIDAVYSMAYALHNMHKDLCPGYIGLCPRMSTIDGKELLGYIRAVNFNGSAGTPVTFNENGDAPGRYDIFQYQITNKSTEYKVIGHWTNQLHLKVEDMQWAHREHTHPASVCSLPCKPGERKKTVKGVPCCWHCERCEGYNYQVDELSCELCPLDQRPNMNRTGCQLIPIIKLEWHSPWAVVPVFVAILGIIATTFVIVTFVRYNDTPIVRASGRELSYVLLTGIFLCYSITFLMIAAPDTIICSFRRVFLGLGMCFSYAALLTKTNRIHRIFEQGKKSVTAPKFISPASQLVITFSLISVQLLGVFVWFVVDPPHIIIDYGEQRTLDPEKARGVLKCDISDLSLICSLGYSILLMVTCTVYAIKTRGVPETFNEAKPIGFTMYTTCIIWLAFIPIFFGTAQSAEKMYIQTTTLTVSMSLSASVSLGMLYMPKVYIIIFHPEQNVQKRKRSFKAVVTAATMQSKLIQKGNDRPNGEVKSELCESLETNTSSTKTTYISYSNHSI

[28] = biological target: 320 GPCRs (Homo sapiens, UniProt P49238)
[29] = biological target: 320 GPCRs (Homo sapiens, UniProt P13945)
[30] = biological target: 320 GPCRs (Homo sapiens, UniProt Q96RI9)
[31] = biological target: 320 GPCRs (Homo sapiens, UniProt Q8IZF5)
320 GPCRs (Homo sapiens, UniProt Q8IZF5), sequence (Q8IZF5 26-1079): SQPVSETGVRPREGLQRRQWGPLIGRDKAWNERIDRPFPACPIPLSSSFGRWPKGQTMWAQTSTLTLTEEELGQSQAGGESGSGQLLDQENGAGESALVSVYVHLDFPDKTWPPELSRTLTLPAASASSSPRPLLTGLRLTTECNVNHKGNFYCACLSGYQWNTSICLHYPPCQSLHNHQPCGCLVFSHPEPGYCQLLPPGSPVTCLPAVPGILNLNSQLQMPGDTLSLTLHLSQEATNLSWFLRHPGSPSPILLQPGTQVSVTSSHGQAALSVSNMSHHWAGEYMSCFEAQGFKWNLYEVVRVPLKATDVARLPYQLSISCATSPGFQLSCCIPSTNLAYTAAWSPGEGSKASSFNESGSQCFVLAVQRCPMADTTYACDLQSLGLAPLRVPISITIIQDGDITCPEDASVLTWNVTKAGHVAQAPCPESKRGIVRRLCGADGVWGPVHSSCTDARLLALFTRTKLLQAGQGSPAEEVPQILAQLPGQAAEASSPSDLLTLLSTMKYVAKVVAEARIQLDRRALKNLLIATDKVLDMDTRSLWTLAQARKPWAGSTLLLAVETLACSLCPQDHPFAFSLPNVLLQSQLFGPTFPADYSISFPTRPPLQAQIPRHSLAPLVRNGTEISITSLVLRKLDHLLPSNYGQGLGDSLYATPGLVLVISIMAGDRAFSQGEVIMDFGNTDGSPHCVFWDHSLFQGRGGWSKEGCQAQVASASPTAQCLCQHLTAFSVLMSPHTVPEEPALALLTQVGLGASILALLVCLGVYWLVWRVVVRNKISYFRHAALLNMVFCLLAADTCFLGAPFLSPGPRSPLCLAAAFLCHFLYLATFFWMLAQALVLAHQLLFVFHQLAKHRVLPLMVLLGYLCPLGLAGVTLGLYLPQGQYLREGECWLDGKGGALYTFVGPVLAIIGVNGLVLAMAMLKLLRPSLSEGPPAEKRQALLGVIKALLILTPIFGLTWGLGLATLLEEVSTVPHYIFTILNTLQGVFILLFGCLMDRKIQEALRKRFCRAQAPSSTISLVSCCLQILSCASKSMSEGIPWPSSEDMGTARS

[32] = biological target: 320 GPCRs (Homo sapiens, UniProt P48039)
[33] = biological target: 320 GPCRs (Homo sapiens, UniProt Q9H1C0)
[34] = biological target: 320 GPCRs (Homo sapiens, UniProt P35410)
320 GPCRs (Homo sapiens, UniProt P35410), sequence (P35410 whole entry): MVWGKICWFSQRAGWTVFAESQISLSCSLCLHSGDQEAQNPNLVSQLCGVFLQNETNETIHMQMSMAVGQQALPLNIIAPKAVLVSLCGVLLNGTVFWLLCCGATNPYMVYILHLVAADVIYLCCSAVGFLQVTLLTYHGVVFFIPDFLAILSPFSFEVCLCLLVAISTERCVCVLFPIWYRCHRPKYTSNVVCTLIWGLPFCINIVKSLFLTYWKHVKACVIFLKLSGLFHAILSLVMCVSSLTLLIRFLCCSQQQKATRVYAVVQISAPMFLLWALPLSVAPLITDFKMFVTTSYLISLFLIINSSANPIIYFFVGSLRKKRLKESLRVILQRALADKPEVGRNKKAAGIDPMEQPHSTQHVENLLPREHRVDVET

[35] = biological target: 320 GPCRs (Homo sapiens, UniProt P43119)
320 GPCRs (Homo sapiens, UniProt P43119), sequence (P43119 whole entry): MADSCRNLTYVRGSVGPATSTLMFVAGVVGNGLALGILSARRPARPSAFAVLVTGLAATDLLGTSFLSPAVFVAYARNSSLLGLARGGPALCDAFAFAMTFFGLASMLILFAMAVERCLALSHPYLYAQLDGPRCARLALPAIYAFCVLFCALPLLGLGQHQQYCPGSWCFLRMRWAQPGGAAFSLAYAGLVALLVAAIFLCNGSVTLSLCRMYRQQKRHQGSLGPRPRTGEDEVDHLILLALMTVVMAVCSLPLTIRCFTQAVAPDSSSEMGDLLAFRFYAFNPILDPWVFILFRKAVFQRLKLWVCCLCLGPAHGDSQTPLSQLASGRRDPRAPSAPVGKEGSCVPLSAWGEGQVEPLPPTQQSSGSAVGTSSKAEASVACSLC

[36] = biological target: 320 GPCRs (Homo sapiens, UniProt Q8NFN8)
320 GPCRs (Homo sapiens, UniProt Q8NFN8), sequence (Q8NFN8 whole entry): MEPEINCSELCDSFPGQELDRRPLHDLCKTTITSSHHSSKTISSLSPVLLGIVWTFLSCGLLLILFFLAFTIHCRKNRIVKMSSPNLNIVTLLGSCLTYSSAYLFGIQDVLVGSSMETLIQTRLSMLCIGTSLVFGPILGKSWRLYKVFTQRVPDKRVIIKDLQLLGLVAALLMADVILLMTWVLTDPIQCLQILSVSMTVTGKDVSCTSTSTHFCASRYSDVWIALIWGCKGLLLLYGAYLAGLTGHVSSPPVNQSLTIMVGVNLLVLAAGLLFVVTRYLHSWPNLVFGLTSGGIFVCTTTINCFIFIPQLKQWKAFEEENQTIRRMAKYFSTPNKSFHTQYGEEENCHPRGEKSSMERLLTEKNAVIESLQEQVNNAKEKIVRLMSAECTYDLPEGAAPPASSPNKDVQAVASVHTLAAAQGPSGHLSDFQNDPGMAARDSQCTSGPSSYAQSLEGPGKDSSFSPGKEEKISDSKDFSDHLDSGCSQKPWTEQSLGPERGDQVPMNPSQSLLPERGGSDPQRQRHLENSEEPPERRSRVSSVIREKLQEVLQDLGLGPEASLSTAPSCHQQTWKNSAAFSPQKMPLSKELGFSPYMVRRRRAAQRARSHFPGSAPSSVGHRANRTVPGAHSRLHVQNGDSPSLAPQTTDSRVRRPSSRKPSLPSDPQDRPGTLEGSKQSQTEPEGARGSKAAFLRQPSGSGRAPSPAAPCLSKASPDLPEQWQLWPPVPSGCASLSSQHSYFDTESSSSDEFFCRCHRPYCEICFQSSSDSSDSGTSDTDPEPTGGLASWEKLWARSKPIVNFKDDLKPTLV

[37] = biological target: 320 GPCRs (Homo sapiens, UniProt P18825)
[38] = biological target: 320 GPCRs (Homo sapiens, UniProt Q9NQS5)
[39] = biological target: 320 GPCRs (Homo sapiens, UniProt Q14439)
[40] = biological target: 320 GPCRs (Homo sapiens, UniProt Q15760)
[41] = biological target: 320 GPCRs (Homo sapiens, UniProt P41146)
[42] = biological target: 320 GPCRs (Homo sapiens, UniProt P47211)
[43] = biological target: 320 GPCRs (Homo sapiens, UniProt Q02643)

## O=C(O)C1CCC2(CC1)CC(Nc1ncnc3[nH]c4c(F)cccc4c13)C2 (stereo not shown) [Compound 74, OC(=O)C1CCC2(CC(C2)NC=3N=CN=C4NC=5C(F)=CC=CC5C34)CC1]
[1]
  RLU (Fold over Basal): 0.5 Fold over Basal and 0.6 Fold over Basal
[2]
  RLU (Fold over Basal): 1.6 Fold over Basal and 0.8 Fold over Basal and 1 Fold over Basal
[3]
  RLU (Fold over Basal): 0.6 Fold over Basal and 1 Fold over Basal
[4]
  RLU (Fold over Basal): 0.9 Fold over Basal and 1.2 Fold over Basal and 1.4 Fold over Basal and 1.1 Fold over Basal
[5]
  RLU (Fold over Basal): 1.2 Fold over Basal and 1.3 Fold over Basal and 0.8 Fold over Basal and 1 Fold over Basal
[6]
  RLU (Fold over Basal): 0.7 Fold over Basal and 1.4 Fold over Basal and 1.3 Fold over Basal and 1.1 Fold over Basal
[7]
  RLU (Fold over Basal): 1 Fold over Basal and 1.6 Fold over Basal and 1.5 Fold over Basal
[8]
  RLU (Fold over Basal): 2.1 Fold over Basal and 1.6 Fold over Basal and 1.9 Fold over Basal and 2.4 Fold over Basal
[9]
  RLU (Fold over Basal): 2 Fold over Basal and 1.8 Fold over Basal and 3 Fold over Basal and 2.4 Fold over Basal
[10]
  RLU (Fold over Basal): 1.2 Fold over Basal and 1.5 Fold over Basal and 1.6 Fold over Basal and 0.9 Fold over Basal
[11]
  RLU (Fold over Basal): 1 Fold over Basal and 1.4 Fold over Basal
[12]
  RLU (Fold over Basal): 0.9 Fold over Basal and 0.7 Fold over Basal and 0.8 Fold over Basal
[13]
  RLU (Fold over Basal): 0.4 Fold over Basal and 0.5 Fold over Basal and 0.6 Fold over Basal
[14]
  RLU (Fold over Basal): 0.3 Fold over Basal and 0.2 Fold over Basal
[15]
  RLU (Fold over Basal): 0.7 Fold over Basal and 1 Fold over Basal and 1.1 Fold over Basal
[16]
  RLU (Fold over Basal): 1.2 Fold over Basal and 0.6 Fold over Basal and 0.8 Fold over Basal and 0.9 Fold over Basal
[17]
  RLU (Fold over Basal): 0.6 Fold over Basal and 0.5 Fold over Basal and 0.8 Fold over Basal
[18]
  RLU (Fold over Basal): 0.8 Fold over Basal and 1.1 Fold over Basal and 1.2 Fold over Basal
[19]
  RLU (Fold over Basal): 1.1 Fold over Basal and 1.2 Fold over Basal and 2 Fold over Basal and 1.3 Fold over Basal
[20]
  RLU (Fold over Basal): 1 Fold over Basal and 0.9 Fold over Basal
[21]
  RLU (Fold over Basal): 1.6 Fold over Basal and 1.2 Fold over Basal and 0.8 Fold over Basal and 1.5 Fold over Basal
[22]
  RLU (Fold over Basal): 1 Fold over Basal and 0.7 Fold over Basal and 1.2 Fold over Basal
[23]
  RLU (Fold over Basal): 0.8 Fold over Basal and 0.5 Fold over Basal and 1 Fold over Basal
[24]
  RLU (Fold over Basal): 1.1 Fold over Basal and 1.2 Fold over Basal and 1 Fold over Basal and 0.6 Fold over Basal
[25]
  RLU (Fold over Basal): 1.1 Fold over Basal and 1.6 Fold over Basal and 1.9 Fold over Basal and 1.5 Fold over Basal
[26]
  RLU (Fold over Basal): 0.7 Fold over Basal and 0.5 Fold over Basal
[27]
  RLU (Fold over Basal): 1.1 Fold over Basal and 0.8 Fold over Basal and 1.5 Fold over Basal
[28]
  RLU (Fold over Basal): 1 Fold over Basal
[29]
  RLU (Fold over Basal): 1.4 Fold over Basal and 1.2 Fold over Basal and 1.1 Fold over Basal and 1.3 Fold over Basal
[30]
  RLU (Fold over Basal): 0.9 Fold over Basal and 1.1 Fold over Basal and 1.2 Fold over Basal
[31]
  RLU (Fold over Basal): 1.6 Fold over Basal and 1.9 Fold over Basal and 1.1 Fold over Basal and 1.2 Fold over Basal
[32]
  RLU (Fold over Basal): 0.9 Fold over Basal and 0.8 Fold over Basal
[33]
  RLU (Fold over Basal): 0.9 Fold over Basal and 0.8 Fold over Basal and 1.3 Fold over Basal
[34]
  RLU (Fold over Basal): 0.7 Fold over Basal and 1 Fold over Basal and 0.9 Fold over Basal and 0.6 Fold over Basal
[35]
  RLU (Fold over Basal): 0.9 Fold over Basal and 0.6 Fold over Basal and 0.7 Fold over Basal and 1 Fold over Basal
[36]
  RLU (Fold over Basal): 1.2 Fold over Basal and 1 Fold over Basal and 0.6 Fold over Basal
[37]
  RLU (Fold over Basal): 0.6 Fold over Basal and 0.8 Fold over Basal
[38]
  RLU (Fold over Basal): 1 Fold over Basal and 0.8 Fold over Basal and 1.1 Fold over Basal
[39]
  RLU (Fold over Basal): 0.8 Fold over Basal and 1.3 Fold over Basal and 1 Fold over Basal
[40]
  RLU (Fold over Basal): 1 Fold over Basal and 1.3 Fold over Basal and 0.9 Fold over Basal and 1.8 Fold over Basal
[41]
  RLU (Fold over Basal): 0.8 Fold over Basal and 0.7 Fold over Basal and 1.3 Fold over Basal and 0.9 Fold over Basal
[42]
  RLU (Fold over Basal): 0.8 Fold over Basal and 0.7 Fold over Basal and 0.9 Fold over Basal and 0.6 Fold over Basal
[43]
  RLU (Fold over Basal): 0.7 Fold over Basal and 0.6 Fold over Basal and 0.8 Fold over Basal
